Source: patent EP4603105A1, “PHARMACEUTICAL COMPOSITION CONTAINING CYCLIC COMPOUND HAVING SELECTIVE KRAS INHIBITORY EFFECT AGAINST HRAS AND NRAS” (CHUGAI SEIYAKU KABUSHIKI KAISHA, priority 2022, dated 2024)
Where two headings read alike, the source gives them in different places.

How the values were obtained:
[1] = biological target: GDP-bound KRAS wild-type protein (Homo sapiens, UniProt P01116); assay: Binding to KRAS by surface plasmon resonance (SPR), dissociation constant KD
Outline: (§1)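 Single-cycle kinetics on GDP-loaded biotin-Avi RAS captured to ~100–300 RU; 75 s ascending injections, 100 µL/min, 30°C. HBS pH 7.4 + 10 mM MgCl2/10 µM GDP/4% DMSO. 1:1 fit, KD.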

[2] = system: human lung cancer strain NCI-H441; assay: NCI-H441 cell proliferation inhibitory activity (CellTiter-Glo, 4 days); format: cell-based; details: read-out: NCl-H441 IC50
Outline: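 Proliferation was scored by […] measured after the reagent was added to cultures kept at 37°C in 5% carbon dioxide.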

[3] = biological target: GDP-bound NRAS wild-type protein (Homo sapiens, UniProt P01111); assay: Binding to NRAS by surface plasmon resonance (SPR), KD and KD ratio to KRAS
Chain of GDP-bound NRAS wild-type protein (P01111 whole entry): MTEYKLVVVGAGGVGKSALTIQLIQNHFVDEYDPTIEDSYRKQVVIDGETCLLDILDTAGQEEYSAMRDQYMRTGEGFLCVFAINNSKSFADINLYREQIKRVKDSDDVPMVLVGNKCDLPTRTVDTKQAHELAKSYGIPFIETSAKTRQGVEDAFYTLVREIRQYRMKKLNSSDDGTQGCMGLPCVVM
Outline: as §1

HRAS wild-type protein = HRAS wild-type protein (Homo sapiens, UniProt P01112); assay: Binding to HRAS by surface plasmon resonance (SPR), KD and KD ratio to KRAS
Chain of HRAS wild-type protein (P01112 whole entry): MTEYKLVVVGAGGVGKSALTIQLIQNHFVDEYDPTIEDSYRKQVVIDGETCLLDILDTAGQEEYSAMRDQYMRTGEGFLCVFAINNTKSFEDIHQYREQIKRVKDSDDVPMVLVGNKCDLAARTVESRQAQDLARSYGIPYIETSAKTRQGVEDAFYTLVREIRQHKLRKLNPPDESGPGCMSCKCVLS
Outline: as §1

[4] = ratio of KD for GDP-bound NRAS wild-type protein to KD for KRAS
[5] = ratio of KD for HRAS wild-type protein to KD for KRAS
[6] = Single Cycle Kinetics, 1:1 binding model
[7] = 50% proliferation inhibitory concentration, four days
[8] = ratio of KD with respect to GDP-bound NRAS wild-type protein to KD with respect to KRAS
[9] = ratio of KD with respect to HRAS wild-type protein to KD with respect to KRAS

Chain of GDP-bound KRAS wild-type protein (P01116 1-188 isoform P01116-2): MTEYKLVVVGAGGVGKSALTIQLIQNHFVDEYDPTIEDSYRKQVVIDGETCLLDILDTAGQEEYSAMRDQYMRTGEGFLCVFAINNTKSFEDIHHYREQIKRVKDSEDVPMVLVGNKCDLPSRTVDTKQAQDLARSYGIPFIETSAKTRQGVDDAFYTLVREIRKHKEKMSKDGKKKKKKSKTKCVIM

Row | Structure (SMILES) | Kd ([1]; Single Cycle Kinetics) [nM] | IC50 ([2]; NCI-H441 cells, 4 days) [nM] | NRAS /KRAS [3, 4] | HRAS /KRAS (HRAS wild-type protein; [5]) | Kd ([1]; 1:1 binding model) [nM] | Kd [1, 6] [nM] | IC50 [2, 7] [nM] | NRAS /KRAS [3, 8] | HRAS /KRAS (HRAS wild-type protein; [9])
1 | CCO[C@@H]1C[C@H]2C(=O)OC3(CCC3)C(=O)N(C)[C@@H](C3CCCC3)C(=O)N(C)[C@H](C(=O)N(C)C)CC(=O)N(C)[C@@H]([C@@H](C)OC)C(=O)N[C@@H]([C@@H](C)CC)C(=O)N3CCC[C@H]3C(=O)N(C)[C@H]3C/C=C\CCN(C3=O)[C@@H](Cc3ccc(C)cc3)C(=O)N(C)CC(=O)N[C@@H](CCc3ccc(C(F)(F)F)c(OC)c3)C(=O)N2C1 [PP3392] | 0.64 | 11.5 | A (a compound having 10 or more and less than 20 is denoted as A) | B (a compound having 3 or more and less than 10 is denoted as B) |  |  |  |  | 
2 | CCCOC[C@@H]1NC(=O)C[C@@H](C(=O)N(C)CCC)N(C)C(=O)[C@H](C2CCCC2)N(C)C(=O)C2(CC(C)(C)C2)NC(=O)[C@@H]2C[C@@H](OCC)CN2C(=O)[C@H](CCc2cc(F)c(C(F)(F)F)c(F)c2)NC(=O)CN(C)C(=O)[C@H](Cc2ccc(C(F)(F)F)cc2)N2CC/C=C\C[C@@H](C2=O)N(C)C(=O)CN(C)C(=O)[C@H]([C@@H](C)CC)NC1=O [PP3451] | 0.35 | 26.2 | A (a compound having 10 or more and less than 20 is denoted as A) | A (a compound having 10 or more and less than 20 is denoted as A) |  |  |  |  | 
3 | CCO[C@@H]1C[C@H]2C(=O)NC3(CC(C)(C)C3)C(=O)N(C)[C@@H](C3CCCC3)C(=O)N(C)[C@H](C(=O)N(C)CC)CC(=O)N(C)[C@@H](COC)C(=O)N[C@@H]([C@@H](C)CC)C(=O)N(C)CC(=O)N(C)[C@H]3C/C=C\CCN(C3=O)[C@@H](Cc3ccc(C)cc3)C(=O)N(C)CC(=O)N[C@@H](CCc3cc(F)c(C(F)(F)F)c(F)c3)C(=O)N2C1 [PP2396] |  | 4.1 | A (a compound having 10 or more and less than 20 is denoted as A) | A (a compound having 10 or more and less than 20 is denoted as A) | 0.069 |  |  |  | 
4 | CCO[C@@H]1C[C@H]2C(=O)NC3(CCC3)C(=O)N(C)[C@@H](C(CC)CC)C(=O)N(C)[C@H](C(=O)N3CCCC3)CC(=O)N(C)[C@@H](C)C(=O)N[C@@H]([C@@H](C)CC)C(=O)N(C)CC(=O)N(C)[C@H]3C/C=C\CCN(C3=O)[C@@H](CC3CCCCC3)C(=O)N(C)CC(=O)N[C@@H](CCc3cc(F)c(C(F)(F)F)c(F)c3)C(=O)N2C1 [PP1434] |  |  |  |  |  | 0.69 | 112 | A (a compound having 10 or more and less than 20 is denoted as A) | A (a compound having 10 or more and less than 20 is denoted as A)
5 | CCO[C@@H]1C[C@H]2C(=O)NC3(CCC3)C(=O)N(C)[C@@H](C3CCCC3)C(=O)N(C)[C@H](C(=O)N(C)C)CC(=O)N(C)[C@@H](CC)C(=O)N[C@@H]([C@@H](C)CC)C(=O)N(C)CC(=O)N(C)[C@H]3C/C=C\CCN(C3=O)[C@@H](Cc3ccc(C(F)(F)F)cc3)C(=O)N(C)CC(=O)N[C@@H](CCc3ccc(C(F)(F)F)c(C)c3)C(=O)N2C1 [PP1265] |  |  |  |  |  | 0.17 | 14.1 | A (a compound having 10 or more and less than 20 is denoted as A) | B (a compound having 3 or more and less than 10 is denoted as B)
6 | CCC[C@H]1C(=O)N[C@@H]([C@@H](C)CC)C(=O)N(C)CC(=O)N(C)[C@H]2C/C=C\CCN(C2=O)[C@@H](Cc2ccc(C(F)(F)F)cc2)C(=O)N(C)CC(=O)N[C@@H](CCc2ccc3sccc3c2)C(=O)N2C[C@H](OCC)C[C@H]2C(=O)NC2(CCC2)C(=O)N(C)[C@@H](C2CCCC2)C(=O)N(C)[C@H](C(=O)N(C)C)CC(=O)N1C [PP1256] |  |  |  |  |  | 0.36 | 69 | A (a compound having 10 or more and less than 20 is denoted as A) | A (a compound having 10 or more and less than 20 is denoted as A)
7 | CCCOC[C@H]1C(=O)N[C@@H]([C@@H](C)CC)C(=O)N(C)CC(=O)N(C)[C@H]2C/C=C\CCN(C2=O)[C@@H](CC2CCC(F)(F)CC2)C(=O)N(C)CC(=O)N[C@@H](CCc2cc(F)c(C(F)(F)F)c(F)c2)C(=O)N2C[C@H](OCC)C[C@H]2C(=O)NC2(CC(C)(C)C2)C(=O)N(C)[C@@H](C(CC)CC)C(=O)N(C)[C@H](C(=O)N(C)C)CC(=O)N1C [PP2472] |  | 42.3 | A (a compound having 10 or more and less than 20 is denoted as A) | A (a compound having 10 or more and less than 20 is denoted as A) | 0.58 |  |  |  | 
8 | CCO[C@@H]1C[C@H]2C(=O)NC3(CCCC3)C(=O)N(C)[C@@H](C3CCC3)C(=O)N(C)[C@H](C(=O)N(C)C)CC(=O)N(C)[C@@H](CC(C)C)C(=O)N[C@@H]([C@@H](C)CC)C(=O)N(C)CC(=O)N(C)[C@H]3C/C(F)=C\CCN(C3=O)[C@@H](Cc3ccc(C(F)(F)F)cc3)C(=O)N(C)CC(=O)N[C@@H](CCc3cc(F)c(C(F)(F)F)c(F)c3)C(=O)N2C1 [PP3516] | 1.4 | 55.4 | B (a compound having 3 or more and less than 10 is denoted as B) | B (a compound having 3 or more and less than 10 is denoted as B) |  |  |  |  | 
